Structures can show the parent of a compound that is named as a salt. Where two headings read alike, the source gives them in different places.
Tests used:
[1] = target: FGFR1 (h) (Homo sapiens, UniProt P11362); assay: FGFR1 (enzymatic assay), TR-FRET; type: biochemical; settings: average values if tested multiple times, read-out: FGFR 1 pIC50 (converted)
[2] = target: FGFR2 (h) (Homo sapiens, UniProt P21802); assay: FGFR2 (enzymatic assay), TR-FRET; type: biochemical; settings: enzymatic assay; average values if tested multiple times; read-out: FGFR 2 pIC50 (converted)
In short: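 At low ATP (0.4 μM), enzyme activity of human FGFR2 (150 ng/ml) toward biotinylated Flt3 substrate (500 nM) was followed with test compound present. Reactions ran in 50 mM HEPES pH 7.5, 6 mM MnCl2, 1 mM DTT, 0.1 mM Na3VO4, 0.01% Triton-X-100, 1% DMSO.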

[3] = target: FGFR3 (h) (Homo sapiens, UniProt P22607); assay: FGFR3 (enzymatic assay), TR-FRET; type: biochemical; settings: average values if tested multiple times, read-out: FGFR 3 pIC50 (converted)
Excerpt: Time-Resolved Fluorescence Resonance Energy Transfer (TR-FRET) signal (ex340 nm.

[4] = target: FGFR4 (h) (Homo sapiens, UniProt P22455); assay: FGFR4 (enzymatic assay), TR-FRET; type: biochemical; settings: FGFR 4 pIC50, enzymatic assay; average values if tested multiple times
[5] = target: T1, Ba/F3-FGFR1-transfected cells (Homo sapiens, UniProt P11362); assay: Ba/F3-FGFR1 (minus IL3) cellular proliferation assay, Alamar Blue; type: cell-based
T1 construct: BAF3-FGFR1 (MIN IL3) pIC50; other: minus IL3
In short: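 Ba/F3-FGFR1 cells, 20000/well, RPMI-1640 + 10% FBS + 2 mM L-Gln; compound in DMSO; 24 h, 37 °C, 5% CO2; Alamar Blue 4 h; RFU ex 540/em 590.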

[6] = system: Ba/F3-FGFR1-transfected cells; assay: Ba/F3-FGFR1 (plus IL3) cellular proliferation assay, counterscreen with 10 ng/ml murine IL3; type: cell-based; settings: read-out: BAF3-FGFR1 (PLUS IL3) pIC50 (converted)
In short: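 Proliferation read-out: resazurin-based Alamar Blue fluorescence (540/590 nm) after 4 h, following 24 h compound treatment of 20000 Ba/F3-FGFR1 cells per well in 10% FBS RPMI at 37° C. IL3 counterscreen used the same protocol plus 10 ng/ml murine IL3.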

[7] = target: T2, Ba/F3-FGFR3-transfected cells (Homo sapiens, UniProt P22607); assay: Ba/F3-FGFR3 (minus IL3) cellular proliferation assay, Alamar Blue; type: cell-based
T2 construct: BAF3-FGFR3 (MIN IL3) pIC50; other: minus IL3
In short: (§1)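 FGFR3-Ba/F3, 20000 cells/well, RPMI-1640 + 10% FBS, no phenol red; cpd in DMSO; 24 h, 37° C/5% CO2. Alamar Blue 4 h, RFU ex540/em590. Counterscreen: + murine IL3 10 ng/ml.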

[8] = system: Ba/F3-FGFR3-transfected cells; assay: Ba/F3-FGFR3 (plus IL3) cellular proliferation assay, counterscreen with 10 ng/ml murine IL3; type: cell-based; settings: read-out: BAF3-FGFR3 (PLUS IL3) pIC50 (converted)
In short: as §1

[9] = system: Ba/F3-KDR-transfected cells; assay: Ba/F3-KDR (plus IL3) cellular proliferation assay, counterscreen with 10 ng/ml murine IL3; type: cell-based; settings: read-out: BAF3-KDR (PLUS IL3) pIC50 (converted)
In short: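 Cells grown with test compound at 37° C and 5% CO2 for 24 hours were given a resazurin/ferricyanide/ferrocyanide reagent for 4 hours before fluorescence (540/590 nm) was recorded.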

[10] = target: Ba/F3-FGFR4-transfected cells (Homo sapiens, UniProt P22455); assay: Ba/F3-FGFR4 cellular proliferation assay, Alamar Blue; type: cell-based
In short: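 Here, cells seeded at 20000 per well were treated 24 hours with compound, then given a 4-hour Alamar Blue incubation at 37° C before RFU measurement at ex. 540 nm and em. 590 nm.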

[11] = plus IL3 (10 ng/ml murine IL3, counterscreen)

T1 sequence (P11362 whole entry, change not shown): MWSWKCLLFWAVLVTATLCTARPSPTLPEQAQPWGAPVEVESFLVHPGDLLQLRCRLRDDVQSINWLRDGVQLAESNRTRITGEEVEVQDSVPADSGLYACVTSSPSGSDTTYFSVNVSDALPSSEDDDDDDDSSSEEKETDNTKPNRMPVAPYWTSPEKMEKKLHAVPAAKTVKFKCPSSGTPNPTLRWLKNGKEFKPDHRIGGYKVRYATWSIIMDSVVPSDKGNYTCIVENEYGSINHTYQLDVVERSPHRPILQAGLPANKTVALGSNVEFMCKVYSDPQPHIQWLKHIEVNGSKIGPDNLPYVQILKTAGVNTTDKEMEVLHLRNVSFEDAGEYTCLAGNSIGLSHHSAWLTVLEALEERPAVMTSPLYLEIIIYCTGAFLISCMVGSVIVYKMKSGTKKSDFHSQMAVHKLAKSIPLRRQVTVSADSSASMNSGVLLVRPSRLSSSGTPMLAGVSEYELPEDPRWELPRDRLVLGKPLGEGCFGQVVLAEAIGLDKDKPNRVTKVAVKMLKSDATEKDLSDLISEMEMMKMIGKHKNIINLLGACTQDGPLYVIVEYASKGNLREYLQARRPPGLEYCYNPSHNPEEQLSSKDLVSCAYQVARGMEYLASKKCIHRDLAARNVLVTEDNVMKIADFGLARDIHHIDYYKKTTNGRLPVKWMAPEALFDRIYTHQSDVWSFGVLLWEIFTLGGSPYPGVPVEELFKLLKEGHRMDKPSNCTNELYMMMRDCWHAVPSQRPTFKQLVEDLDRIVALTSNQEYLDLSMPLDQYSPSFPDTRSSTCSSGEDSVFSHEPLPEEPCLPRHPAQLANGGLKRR
T2 sequence (P22607 whole entry, change not shown): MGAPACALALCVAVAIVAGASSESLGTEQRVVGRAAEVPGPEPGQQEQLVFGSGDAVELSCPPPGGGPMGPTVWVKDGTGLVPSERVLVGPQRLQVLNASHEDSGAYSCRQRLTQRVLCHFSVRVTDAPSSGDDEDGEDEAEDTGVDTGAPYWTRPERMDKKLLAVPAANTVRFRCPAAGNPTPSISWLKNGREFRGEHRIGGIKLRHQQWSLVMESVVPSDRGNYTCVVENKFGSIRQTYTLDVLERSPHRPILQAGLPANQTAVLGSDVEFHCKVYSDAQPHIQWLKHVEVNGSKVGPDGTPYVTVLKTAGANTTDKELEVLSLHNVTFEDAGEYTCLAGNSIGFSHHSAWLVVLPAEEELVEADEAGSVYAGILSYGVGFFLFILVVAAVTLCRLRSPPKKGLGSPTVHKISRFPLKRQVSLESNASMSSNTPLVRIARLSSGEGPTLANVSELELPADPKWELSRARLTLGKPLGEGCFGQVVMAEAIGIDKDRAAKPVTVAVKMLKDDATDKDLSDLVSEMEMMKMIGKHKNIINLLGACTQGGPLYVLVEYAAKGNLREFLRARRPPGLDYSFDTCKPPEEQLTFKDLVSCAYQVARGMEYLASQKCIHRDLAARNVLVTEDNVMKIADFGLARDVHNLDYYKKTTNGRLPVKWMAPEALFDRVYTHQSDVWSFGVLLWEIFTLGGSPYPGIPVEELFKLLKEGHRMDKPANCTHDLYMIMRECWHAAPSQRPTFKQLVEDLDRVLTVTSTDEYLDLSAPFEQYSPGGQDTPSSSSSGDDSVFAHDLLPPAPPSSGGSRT
Sequence of FGFR4 (h) (P22455 22-802): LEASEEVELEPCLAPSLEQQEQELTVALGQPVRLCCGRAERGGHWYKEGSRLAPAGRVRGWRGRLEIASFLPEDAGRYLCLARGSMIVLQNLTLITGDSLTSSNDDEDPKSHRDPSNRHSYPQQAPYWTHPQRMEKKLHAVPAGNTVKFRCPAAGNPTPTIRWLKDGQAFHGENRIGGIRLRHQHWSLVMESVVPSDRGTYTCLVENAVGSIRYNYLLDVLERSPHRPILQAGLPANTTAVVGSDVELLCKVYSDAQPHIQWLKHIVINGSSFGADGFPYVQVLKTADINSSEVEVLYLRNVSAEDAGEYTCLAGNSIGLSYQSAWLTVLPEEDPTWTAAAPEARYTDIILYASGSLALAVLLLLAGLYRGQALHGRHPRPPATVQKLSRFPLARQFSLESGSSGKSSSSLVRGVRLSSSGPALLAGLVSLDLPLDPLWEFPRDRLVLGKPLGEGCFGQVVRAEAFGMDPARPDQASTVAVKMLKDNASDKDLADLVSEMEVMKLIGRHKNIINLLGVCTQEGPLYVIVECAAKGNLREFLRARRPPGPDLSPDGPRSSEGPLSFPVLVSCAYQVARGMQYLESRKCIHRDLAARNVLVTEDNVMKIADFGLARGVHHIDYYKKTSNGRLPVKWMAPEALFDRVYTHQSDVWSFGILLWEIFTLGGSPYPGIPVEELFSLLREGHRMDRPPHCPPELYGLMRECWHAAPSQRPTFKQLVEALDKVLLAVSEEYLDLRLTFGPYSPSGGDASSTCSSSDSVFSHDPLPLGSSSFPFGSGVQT
Sequence of FGFR1 (h) (P11362 22-822): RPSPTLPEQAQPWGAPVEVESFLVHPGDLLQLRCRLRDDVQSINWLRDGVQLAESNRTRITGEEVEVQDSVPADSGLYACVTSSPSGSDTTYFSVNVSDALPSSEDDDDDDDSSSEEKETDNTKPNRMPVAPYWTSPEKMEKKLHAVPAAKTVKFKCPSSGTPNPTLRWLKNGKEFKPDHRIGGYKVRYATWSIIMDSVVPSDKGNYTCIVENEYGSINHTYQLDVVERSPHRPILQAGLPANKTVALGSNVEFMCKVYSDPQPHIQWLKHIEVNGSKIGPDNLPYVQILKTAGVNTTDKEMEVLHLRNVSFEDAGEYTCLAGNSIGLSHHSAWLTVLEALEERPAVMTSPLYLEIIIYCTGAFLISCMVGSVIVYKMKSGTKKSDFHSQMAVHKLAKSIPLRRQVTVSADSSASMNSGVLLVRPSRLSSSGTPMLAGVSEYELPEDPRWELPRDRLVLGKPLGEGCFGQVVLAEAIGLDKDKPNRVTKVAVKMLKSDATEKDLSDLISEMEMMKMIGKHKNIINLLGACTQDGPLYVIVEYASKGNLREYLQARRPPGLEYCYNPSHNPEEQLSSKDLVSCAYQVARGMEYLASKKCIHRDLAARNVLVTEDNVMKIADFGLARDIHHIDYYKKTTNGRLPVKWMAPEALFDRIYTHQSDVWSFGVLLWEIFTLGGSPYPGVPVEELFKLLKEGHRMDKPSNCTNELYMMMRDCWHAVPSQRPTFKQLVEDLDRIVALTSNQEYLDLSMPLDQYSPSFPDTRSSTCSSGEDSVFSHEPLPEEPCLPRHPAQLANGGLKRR
Sequence of FGFR2 (h) (P21802 22-821): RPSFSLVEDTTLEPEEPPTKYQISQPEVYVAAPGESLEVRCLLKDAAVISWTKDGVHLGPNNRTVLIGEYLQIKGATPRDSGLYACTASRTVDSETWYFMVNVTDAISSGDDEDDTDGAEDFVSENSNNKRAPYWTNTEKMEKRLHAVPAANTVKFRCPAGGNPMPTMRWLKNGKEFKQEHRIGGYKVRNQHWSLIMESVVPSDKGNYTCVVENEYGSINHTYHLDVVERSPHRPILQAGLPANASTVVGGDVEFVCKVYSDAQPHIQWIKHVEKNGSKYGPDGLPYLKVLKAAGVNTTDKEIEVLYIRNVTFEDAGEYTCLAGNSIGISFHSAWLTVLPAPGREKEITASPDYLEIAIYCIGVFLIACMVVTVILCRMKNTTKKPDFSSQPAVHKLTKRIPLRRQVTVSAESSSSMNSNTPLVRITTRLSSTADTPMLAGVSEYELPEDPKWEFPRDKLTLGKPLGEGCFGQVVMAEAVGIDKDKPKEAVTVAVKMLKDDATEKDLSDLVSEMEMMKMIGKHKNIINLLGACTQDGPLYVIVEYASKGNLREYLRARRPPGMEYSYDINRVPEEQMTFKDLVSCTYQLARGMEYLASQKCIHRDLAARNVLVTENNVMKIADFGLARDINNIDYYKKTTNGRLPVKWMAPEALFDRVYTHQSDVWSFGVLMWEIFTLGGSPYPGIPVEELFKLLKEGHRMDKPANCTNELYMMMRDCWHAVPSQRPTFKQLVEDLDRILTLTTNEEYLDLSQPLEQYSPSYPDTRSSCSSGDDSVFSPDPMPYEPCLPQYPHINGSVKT
Sequence of FGFR3 (h) (P22607 23-806): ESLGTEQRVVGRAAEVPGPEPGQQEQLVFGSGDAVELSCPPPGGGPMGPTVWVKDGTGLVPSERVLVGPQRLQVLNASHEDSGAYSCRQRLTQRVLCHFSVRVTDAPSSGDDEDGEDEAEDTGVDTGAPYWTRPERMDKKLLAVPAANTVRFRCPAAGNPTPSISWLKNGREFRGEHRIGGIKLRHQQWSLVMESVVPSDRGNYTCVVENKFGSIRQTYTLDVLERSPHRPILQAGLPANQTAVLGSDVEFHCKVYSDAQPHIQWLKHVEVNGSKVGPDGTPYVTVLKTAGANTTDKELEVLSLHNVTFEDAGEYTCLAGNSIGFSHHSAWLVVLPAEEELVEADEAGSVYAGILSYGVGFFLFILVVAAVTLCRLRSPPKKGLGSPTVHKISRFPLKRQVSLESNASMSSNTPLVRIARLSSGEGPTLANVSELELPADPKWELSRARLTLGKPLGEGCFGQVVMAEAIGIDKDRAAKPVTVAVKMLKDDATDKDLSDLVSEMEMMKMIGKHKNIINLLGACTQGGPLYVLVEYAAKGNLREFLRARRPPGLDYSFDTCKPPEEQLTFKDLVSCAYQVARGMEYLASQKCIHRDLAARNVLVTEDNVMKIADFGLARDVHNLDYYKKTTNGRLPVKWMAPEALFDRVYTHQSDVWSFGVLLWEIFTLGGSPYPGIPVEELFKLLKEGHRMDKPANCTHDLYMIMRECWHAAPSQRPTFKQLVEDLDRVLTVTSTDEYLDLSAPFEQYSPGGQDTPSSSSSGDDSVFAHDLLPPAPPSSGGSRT

Compound	IC50 [1]	IC50 [2]	IC50 [3]	IC50 [4]	BAF3-FGFR1 (MIN IL3) pIC50 [5]	IC50 [6, 11]	BAF3-FGFR3 (MIN IL3) pIC50 [7]	IC50 [8, 11]	IC50 [9, 11]	BAF3-FGFR4 pIC50 [10]	IC50 [6]	IC50 [8]	IC50 [9]
COc1cc(OC)cc(N(Cc2ncc[nH]2)c2ccc3ncc(-c4cnn(C)c4)nc3n2)c1 (racemic) [24-DL-tartrate salt]	0.000355 µM	0.00132 µM	0.000741 µM	0.00112 µM	8.47	> 10 µM	8.21	> 10 µM	> 10 µM	7.62	–	–	–
COc1cc(OC)c(F)c(N(CCCO)c2ccc3ncc(-c4cnn(C)c4)nc3n2)c1F (single isomer, unassigned) [Compound 16]	0.01 µM	0.0158 µM	0.0251 µM	0.0251 µM	8.0	> 10 µM	7.8	> 10 µM	> 10 µM	7.7	–	–	–
COc1cc(OC)cc(N(CC(O)C(F)(F)F)c2ccc3ncc(-c4cnn(C)c4)nc3n2)c1 (single isomer, unassigned) [Compound 33]	0.000871 µM	0.00204 µM	0.000708 µM	0.00141 µM	7.60	> 10 µM	~7.64	> 10 µM	> 10 µM	~7.03	–	–	–
COCC(O)CN(c1ccc2ncc(-c3cnn(C)c3)nc2n1)c1cc(OC)cc(OC)c1F (single isomer, unassigned) [Compound 58]	0.00135 µM	0.00195 µM	0.00126 µM	0.00214 µM	7.51	> 10 µM	7.43	> 10 µM	> 10 µM	7.09	–	–	–
COc1cc(OC)c(F)c(N(CC(O)COC(C)C)c2ccc3ncc(-c4cnn(C)c4)nc3n2)c1 (single isomer, unassigned) [Compound 75]	0.00214 µM	0.00263 µM	0.00195 µM	0.00224 µM	7.76	> 10 µM	7.75	> 10 µM	> 10 µM	7.33	–	–	–
COc1cc(OC)c(F)c(N(c2ccc3ncc(-c4cnn(C)c4)nc3n2)C(CO)COC(C)C)c1 (single isomer, unassigned) [Compound 76]	0.302 µM	0.468 µM	0.105 µM	0.214 µM	5.55	> 10 µM	5.64	> 10 µM	> 10 µM	5.20	–	–	–
COc1cc(/N=c2\ccc3ncc(-c4cnn(C)c4)nc3n2CC(O)COC(C)C)c(F)c(OC)c1 (single isomer, unassigned) [Compound 77]	0.00269 µM	0.00316 µM	0.00178 µM	0.00302 µM	7.37	> 10 µM	7.38	> 10 µM	> 10 µM	6.46	–	–	–
COc1cc(OC)c(Cl)c(/N=c2\ccc3ncc(-c4cnn(C)c4)nc3n2CC2CCC(=O)N2)c1Cl (single isomer, unassigned) [Compound 87]	0.00407 µM	0.00603 µM	0.00457 µM	0.0389 µM	6.84	> 9.12 µM	~6.93	> 10 µM	> 10 µM	5.89	–	–	–
COc1cc(OC)c(Cl)c(N(CC2CCC(=O)N2)c2ccc3ncc(-c4cnn(C)c4)nc3n2)c1Cl (single isomer, unassigned) [Compound 88]	0.0129 µM	0.00912 µM	0.00676 µM	0.0427 µM	6.68	> 10 µM	6.57	> 10 µM	> 10 µM	5.65	–	–	–
COc1ccc(Cl)c(/N=c2\ccc3ncc(-c4cnn(C)c4)nc3n2CC2CCC(=O)N2)c1Cl (single isomer, unassigned) [Compound 89]	0.0933 µM	0.0708 µM	0.0977 µM	~1.12 µM	5.18	> 10 µM	5.14	> 10 µM	> 10 µM	<5	–	–	–
COc1cc(OC)c(F)c(N(CC2COC(=O)N2)c2ccc3ncc(-c4cnn(C)c4)nc3n2)c1 (single isomer, unassigned) [Compound 111]	0.00115 µM	0.002 µM	0.001 µM	0.00158 µM	7.79	> 10 µM	7.58	> 10 µM	> 10 µM	7.27	–	–	–
COc1cc(/N=c2\ccc3ncc(-c4cnn(C)c4)nc3n2CC2COC(=O)N2)c(F)c(OC)c1 (single isomer, unassigned) [Compound 112]	0.00126 µM	0.00166 µM	0.000776 µM	0.00204 µM	7.23	> 10 µM	~7.27	> 10 µM	> 10 µM	6.67	–	–	–
CNCCN(c1ccc2ncc(-c3cnn(C)c3)nc2n1)c1c(F)c(OC)cc(OC)c1F [Compound 3]	0.00135 µM	0.00309 µM	0.00257 µM	0.00646 µM	8.38	> 10 µM	~8.04	> 10 µM	> 10 µM	7.37	–	–	–
COc1cc(OC)c(F)c(N(CCNC(C)C)c2ccc3ncc(-c4cnn(C)c4)nc3n2)c1F [Compound 5]	0.00158 µM	0.00398 µM	0.00158 µM	0.00631 µM	8.7	6.31 µM	8.3	> 10 µM	> 10 µM	~8.21	–	–	–
COCC(O)CN(c1cc(OC)cc(OC)c1)c1ccc2ncc(-c3cnn(C)c3)nc2n1 (centres unmarked) [Compound 7]	0.00316 µM	0.00398 µM	0.00158 µM	0.00631 µM	7.0	> 10 µM	7.1	> 10 µM	> 10 µM	6.53	–	–	–
COc1cc(OC)c(F)c(N(Cc2ncccn2)c2ccc3ncc(-c4cnn(C)c4)nc3n2)c1 [Compound 9]	0.00562 µM	0.0126 µM	0.0158 µM	0.0251 µM	7.4	–	~7.2	–	–	6.79	> 10 µM	> 10 µM	> 10 µM
COc1cc(OC)c(F)c(N(Cc2cnccn2)c2ccc3ncc(-c4cnn(C)c4)nc3n2)c1F [Compound 10]	0.0158 µM	0.0355 µM	0.0631 µM	0.1 µM	8.1	> 10 µM	7.85	> 10 µM	> 10 µM	7.57	–	–	–
